ChEMBL document CHEMBL1151295, “11-Methoxy-macusine A. A new quaternary alkaloid from Strychnos angolensis” (1983)

Assay: Muscle relaxant activity in rat diaphragm assessed as inhibition of electrically-stimulated contraction
Type: functional

C/C=C1/C[N+]2(C)[C@H]3C[C@@H]1[C@@](CO)(C(=O)OC)[C@@H]2Cc1c3[nH]c2cc(OC)ccc12 [11-METHOXY MACUSINE A]
Activity: 0.16 mg/kg
